One compound from patent US20090291915A1, “Silicon Compounds and Their Use” (priority 2001, published 2009) can be followed below.

Each structure is given as a SMILES string.

Broadly, the melting point is the temperature, or range, at which the solid turns liquid. In the case of `COc1nc(NCCCN2CCOCC2)nc(OC)c1NC(=O)c1ccc(Oc2cncc([Si](C)(C)C)c2)o1`, the melting point was 80 to 82 °C.
